# Data: patent publication US11389465B2, “Phosphorylated hexaacyl disaccharides (PHADs) for treating or preventing infections” (VANDERBILT UNIVERSITY, priority 2017, dated 2022)
# How the values were obtained:
# C. albicans = assay: Systemic (intravenous) C. albicans infection in MPLA-primed mice (FIG. 2); format: in vivo; details: MPLA 20 μg; intravenous C. albicans 1×10^8 CFU
# Description: FIG. 2. MPLA induces resistance to S. aureus and C. albicans infection. A) WT BALB/c mice were injected with intravenous MPLA (20 μg/mouse) or vehicle one and two days prior to intravenous inoculation with intravenous 10^8 cfu S. aureus or 10^8 cfu C. albicans. B) Kaplan Meier survival curve of vehicle- and MPLA-primed mice. (n=12 mice/group) after S. aureus inoculation. C) Core (rectal) body temperature assessed daily after S. aureus inoculation. D) S. aureus cfu per gram of tissue recoverable from whole spleen, lung, and kidney in vehicle and MPLA-primed mice at 3 days after S. aureus inoculation. E) Concentration of serum IL-6 2 hours after S. aureus inoculation or vehicle. F) Concentration of serum BUN 3 days after S. aureus inoculation or vehicle. G) Kaplan Meier survival curve of vehicle- and MPLA-primed mice. (n=12 mice/group) after intravenous 10^8 cfu C. albicans inoculation. H) Core (rectal) body temperature after C. albicans inoculation. Data shown as mean+/−SEM. For Kaplan-Meier plots *, p<0.05 via log-rank Mantel-Cox test. Otherwise, *, p<0.05 as determined by ANOVA with Tukey's post-hoc multiple comparison test.
# MPLA is also effective in improving survival in models of systemic S. aureus and C. albicans infection. Mice treated with MPLA (20 μg) after a 20% cutaneous burn received intravenous challenge with S. aureus or C. albicans (1×10^8 CFU) on day 5 post-burn (FIG. 2).
# Pseudomonas aeruginosa = assay: Duration of MPLA activity, intraperitoneal P. aeruginosa challenge (FIG. 4); format: in vivo, mice
# Description: FIG. 4. Duration of MPLA activity. Mice were treated with MPLA (20 μg IP) for 2 consecutive days and challenged with P. aeruginosa at the designated times after the last MPLA treatment. *<0.05 compared to vehicle control.
# It is important to know how long the effect of PHADs lasts to guide dosing frequency. Studies were performed with MPLA that show a duration of action of up to 10 days. Mice were treated with MPLA on 2 consecutive days (20 μg, IP) followed by intraperitoneal challenge with Pseudomonas aeruginosa (1×10^8) at 1, 7, 10 or 15 days after the last MPLA treatment (FIG. 4).
# [1] = tested on: tissue macrophages and neutrophils; assay: MPLA modulation of tissue macrophages and neutrophils (FIG. 10); format: in vivo, mice
# From the text: FIG. 10. MPLA induces resistance to infection via modulation of tissue macrophages and neutrophils. A-C) Total splenic A) macrophages, B) neutrophils, and C) monocytes 3 days after S. aureus inoculation or vehicle in MPLA- and vehicle-primed mice. D) Representative image of F4/80^+ immunohistochemical staining (brown) in kidney 3 days after S. aureus inoculation in MPLA- and vehicle-primed mice E) Optical density quantification of F4/80^+ staining in kidneys. F) Mice were primed with MPLA or vehicle via intraperitoneal injection and 24 hours later pHrodo tagged S. aureus bioparticles were injected into the peritoneal cavity. Peritoneal leukocytes were harvested 6 hours later and assessed for pHrodo MFI via flow cytometry. G) Mice were primed with MPLA or vehicle via intraperitoneal injection and 24 hours later leukocytes were harvested from the peritoneal cavity. Respiratory burst was elicited by 45 minutes of PMA stimulation and DHR 123 MFI of macrophages, neutrophils, and monocytes was assessed by flow cytometry. H) Mice were administered intravenous clodronate-liposomes 24 hours prior to the first MPLA administration. Mice were then inoculated with intravenous 10^8 cfu S. aureus. Kaplan-Meier survival plot after S. aureus infection (n=15 mice/group). I) Mice were administered intravenous anti-Ly6G antibody 24 hours prior to the first MPLA administration. Mice were then inoculated with intravenous 10^8 cfu S. aureus. Kaplan-Meier survival plot after S. aureus infection (n=10 mice/group). J) C57BL6 WT and CCR2^−/− mice were primed with MPLA or vehicle and inoculated with intravenous 10^8 cfu S. aureus. Kaplan-Meier survival plot after S. aureus infection (n=10 mice/group). K) WT C57BL6 and RAG2^−/− mice were injected with intravenous MPLA or vehicle prior to intravenous inoculation with 10^8 cfu S. aureus. Kaplan-Meier survival plot (n=10 mice/group). Data shown as mean+/−SEM. For Kaplan-Meier plots *, p<0.05 via log-rank Mantel-Cox test. Otherwise, *, p<0.05 as determined by ANOVA with Tukey's post-hoc multiple comparison test
# MPLA treatment increases macrophage, monocyte and neutrophil accumulation in the spleen (FIG. 10, A-C), increases macrophage accumulation in S. aureus abscesses (FIG. 10, D-E) and increases macrophage phagocytosis and respiratory burst functions (FIG. 10, F-G).
# [2] = tested on: Bone marrow derived macrophages (BMDMs); assay: Metabolic reprogramming of bone marrow derived macrophages by MPLA (FIG. 11); format: cell-based; details: 1 μg/mL MPLA for 24 hours
# Description: FIG. 11. MPLA drives persistent and dynamic metabolic reprogramming in macrophages. A) Bone marrow derived macrophages (BMDMs) were primed with 1 μg/mL MPLA for 24 hours, washed, and rested for 3 days (3 dp macrophages). These macrophages were compared to BMDMs stimulated with 1 μg/mL MPLA for 24 hours prior to assessment (24 hr macrophages) and untreated BMDMs (control). B) Glycolysis stress test of macrophages as determined by the Seahorse Xf^e96. C) Maximal extracellular acidification rate (ECAR) derived after the addition of oligomycin in the glycolysis stress test D) Glucose consumed from BMDMs over 24 hours, as determined by glucose concentration in cell-free medium subtracted by cell-containing medium. E) Lactate produced by BMDMs over 24 hours, as determined by lactate in cell-containing medium subtracted by cell free medium. F) Basal oxygen consumption rate (OCR) determined after the addition of glucose in the glycolysis stress test. G) Mitochondrial stress test of BMDMs as determined by the Seahorse Xfi96. H) Maximal oxidative rate derived after the addition of FCCP in the mitochondrial stress test. I) Intracellular ATP from BMDMs as determined by luminescence assay. Some BMDMs were exposed to 10 mM 2-DG or IlpM oligomycin for 3 hours prior to the assay. J) MitoTracker Green staining of BMDMs as determined by flow cytometry. K) Mitochondrial DNA (mtDNA)/nuclear DNA (nucDNA) as determined by qPCR. L) Succinate dehydrogenase (SDHA), citrate synthase (CS), and β-actin as determined by western blot. All bands shown derived from the same samples. […] Densitometry of SDHA and CS compared to β-actin derived from ImageJ shown. All experiments replicated at least twice. Data shown as mean+/−SEM. *, p<0.05 as determined by ANOVA with Tukey's post-hoc multiple comparison analysis.
# [3] = in vivo; cited from earlier work
substance,measurement,setting,value
Monophosphoryl Lipid A [MPLA],survival,C. albicans,40%
same,duration of action,Pseudomonas aeruginosa; MPLA 20 μg IP on 2 consecutive days,up to 10 days
same,bacterial burden,"Pseudomonas aeruginosa; challenge at 1, 7 and 10 days after last MPLA treatment, compared to vehicle",significantly lower bacterial burden
same,attenuation of hypothermia,Pseudomonas aeruginosa; challenge up to 15 days after last MPLA treatment,persisted until day 15
same,"macrophage, monocyte and neutrophil accumulation in the spleen",[1]; 3 days after S. aureus inoculation,increases
same,beneficial effects of MPLA after depletion of macrophages or neutrophils,"[1]; clodronate-liposomes or anti-Ly6G, survival after S. aureus, not with cells of the adaptive immune system",ablates the beneficial effects of MPLA
same,macrophage phagocytosis and respiratory burst functions,"[1]; intraperitoneal priming, peritoneal leukocytes",increases
same,macrophage accumulation in S. aureus abscesses,"[1]; kidney, F4/80+ staining, 3 days after inoculation",increases
same,ATP production,[2],enhances ATP production
same,macrophage metabolism: glycolysis and oxygen consumption,[2],increased glycolysis and oxygen consumption
same,mitochondrial biogenesis,[2],enhances
same,dose relative to LPS that can be administered to humans before adverse side effects occur,[3],"1000-10,000 times"
